Results from PubChem BioAssay (NCI).
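Protocol summary: plate cells (96-well), add compound at 5 concentrations, incubate 48 h, interpolate endpoints linearly. TGI: total growth inhibition.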

Columns and labels:
Test in all cases: NCI anticancer screen, dose series, 48 h
NCI/ADR-RES ovarian = system: NCI/ADR-RES ovarian
CAKI-1 renal = system: CAKI-1 renal
PC-3 prostate = system: PC-3 prostate
UO-31 renal = system: UO-31 renal
SF-295 CNS = system: SF-295 CNS
T-47D breast = system: T-47D breast
HOP-62 NSCLC = system: HOP-62 NSCLC
SNB-75 CNS = system: SNB-75 CNS
NCI-H460 lung = system: NCI-H460 lung
M14 melanoma = system: M14 melanoma
UACC-257 melanoma = system: UACC-257 melanoma
SN12C renal = system: SN12C renal
SK-MEL-2 melanoma = system: SK-MEL-2 melanoma
BT-549 breast = system: BT-549 breast
HOP-92 NSCLC = system: HOP-92 NSCLC
SF-539 CNS = system: SF-539 CNS
LOX IMVI melanoma = system: LOX IMVI melanoma
HS 578T breast = system: HS 578T breast
NCI-H23 lung = system: NCI-H23 lung
KM12 colon = system: KM12 colon
SNB-19 CNS = system: SNB-19 CNS
OVCAR-3 ovarian = system: OVCAR-3 ovarian
COLO 205 colon = system: COLO 205 colon
SK-MEL-28 melanoma = system: SK-MEL-28 melanoma
UACC-62 melanoma = system: UACC-62 melanoma
U251 CNS = system: U251 CNS
NCI-H226 lung = system: NCI-H226 lung
SR leukemia = system: SR leukemia
OVCAR-5 ovarian = system: OVCAR-5 ovarian
IGROV1 ovarian = system: IGROV1 ovarian
ACHN renal = system: ACHN renal
RPMI-8226 leukemia = system: RPMI-8226 leukemia
DU-145 prostate = system: DU-145 prostate
MDA-MB-435 = system: MDA-MB-435
SK-MEL-5 melanoma = system: SK-MEL-5 melanoma
MOLT-4 leukemia = system: MOLT-4 leukemia
HL-60(TB) leukemia = system: HL-60(TB) leukemia
OVCAR-4 ovarian = system: OVCAR-4 ovarian
MDA-MB-231 breast = system: MDA-MB-231 breast
RXF 393 renal = system: RXF 393 renal
HCT-116 colon = system: HCT-116 colon
SK-OV-3 ovarian = system: SK-OV-3 ovarian
SW-620 colon = system: SW-620 colon
TK-10 renal = system: TK-10 renal
786-0 renal = system: 786-0 renal
HT29 colon = system: HT29 colon
NCI-H522 lung = system: NCI-H522 lung
A498 renal = system: A498 renal
SF-268 CNS = system: SF-268 CNS
OVCAR-8 ovarian = system: OVCAR-8 ovarian
A549 NSCLC = system: A549 NSCLC
EKVX NSCLC = system: EKVX NSCLC
K-562 leukemia = system: K-562 leukemia
HCT-15 colon = system: HCT-15 colon
HCC-2998 colon = system: HCC-2998 colon
MDA-N = system: MDA-N
MCF7 breast = system: MCF7 breast
CCRF-CEM leukemia = system: CCRF-CEM leukemia

SMILES: COC1=CC(=O)c2c(c(-c3csc(C)n3)cn2C)C1=O
- TGI (NCI/ADR-RES ovarian): > 79.1 µM
- TGI (CAKI-1 renal): > 73.5 µM
- TGI (PC-3 prostate): > 68.6 µM
- TGI (UO-31 renal): > 73.4 µM
- TGI (SF-295 CNS): > 67.1 µM
- TGI (T-47D breast): > 64.3 µM
- TGI (HOP-62 NSCLC): > 68.4 µM
- TGI (SNB-75 CNS): 19 µM
- TGI (NCI-H460 lung): 19.9 µM
- TGI (M14 melanoma): > 100 µM
- TGI (UACC-257 melanoma): 32.6 µM
- TGI (SN12C renal): > 68.9 µM
- TGI (SK-MEL-2 melanoma): > 63.8 µM
- TGI (BT-549 breast): > 100 µM
- TGI (HOP-92 NSCLC): > 100 µM
- TGI (SF-539 CNS): 54.7 µM
- TGI (LOX IMVI melanoma): > 100 µM
- TGI (HS 578T breast): > 100 µM
- TGI (NCI-H23 lung): 15 µM
- TGI (KM12 colon): > 100 µM
- TGI (SNB-19 CNS): > 81.2 µM
- TGI (OVCAR-3 ovarian): 36.4 µM
- TGI (COLO 205 colon): > 71.1 µM
- TGI (SK-MEL-28 melanoma): > 100 µM
- TGI (UACC-62 melanoma): 42.5 µM
- TGI (U251 CNS): > 100 µM
- TGI (NCI-H226 lung): > 100 µM
- TGI (SR leukemia): > 100 µM
- TGI (OVCAR-5 ovarian): > 95 µM
- TGI (IGROV1 ovarian): 72.2 µM
- TGI (ACHN renal): > 71.9 µM
- TGI (RPMI-8226 leukemia): > 19.8 µM
- TGI (DU-145 prostate): > 45.9 µM
- TGI (MDA-MB-435): 26.8 µM
- TGI (SK-MEL-5 melanoma): 4.97 µM
- TGI (MOLT-4 leukemia): > 100 µM
- TGI (HL-60(TB) leukemia): 23.9 µM
- TGI (OVCAR-4 ovarian): > 100 µM
- TGI (MDA-MB-231 breast): > 86.6 µM
- TGI (RXF 393 renal): 43.3 µM
- TGI (HCT-116 colon): > 77.5 µM
- TGI (SK-OV-3 ovarian): > 100 µM
- TGI (SW-620 colon): > 100 µM
- TGI (TK-10 renal): > 100 µM
- TGI (786-0 renal): > 76.7 µM
- TGI (HT29 colon): 91.6 µM
- TGI (NCI-H522 lung): 91.4 µM
- TGI (A498 renal): 72.6 µM
- TGI (SF-268 CNS): > 100 µM
- TGI (OVCAR-8 ovarian): > 94.8 µM
- TGI (A549 NSCLC): > 41.6 µM
- TGI (EKVX NSCLC): 77.9 µM
- TGI (K-562 leukemia): > 100 µM
- TGI (HCT-15 colon): > 52.5 µM
- TGI (HCC-2998 colon): > 100 µM
- TGI (MDA-N): 35.1 µM
- TGI (MCF7 breast): > 69.5 µM
- TGI (CCRF-CEM leukemia): > 94.4 µM

SMILES: CC(=O)N(C)C(C(=O)N1CC(C)CC1C(=O)N(C)C1C(=O)NC(CC(C)C)C(=O)N2CC(C)CC2C(=O)NC(CC(C)C)C(=O)N(C)C(C(C)C)C(=O)N2CCCC2C(=O)N(C)C(CC(C)C)C(=O)NCC(=O)OC1C)C(C)C (stereo unspecified)
- TGI (NCI/ADR-RES ovarian): > 100 µM
- TGI (CAKI-1 renal): > 100 µM
- TGI (PC-3 prostate): > 100 µM
- TGI (UO-31 renal): > 100 µM
- TGI (SF-295 CNS): > 100 µM
- TGI (T-47D breast): > 100 µM
- TGI (HOP-62 NSCLC): > 100 µM
- TGI (SNB-75 CNS): > 100 µM
- TGI (NCI-H460 lung): > 100 µM
- TGI (M14 melanoma): > 100 µM
- TGI (UACC-257 melanoma): > 100 µM
- TGI (SN12C renal): > 100 µM
- TGI (SK-MEL-2 melanoma): > 100 µM
- TGI (BT-549 breast): > 100 µM
- TGI (HOP-92 NSCLC): > 100 µM
- TGI (SF-539 CNS): > 100 µM
- TGI (LOX IMVI melanoma): > 100 µM
- TGI (HS 578T breast): > 100 µM
- TGI (NCI-H23 lung): > 100 µM
- TGI (KM12 colon): > 100 µM
- TGI (SNB-19 CNS): > 100 µM
- TGI (OVCAR-3 ovarian): > 100 µM
- TGI (COLO 205 colon): > 100 µM
- TGI (SK-MEL-28 melanoma): > 100 µM
- TGI (UACC-62 melanoma): > 100 µM
- TGI (U251 CNS): > 100 µM
- TGI (NCI-H226 lung): > 100 µM
- TGI (SR leukemia): > 100 µM
- TGI (OVCAR-5 ovarian): > 100 µM
- TGI (IGROV1 ovarian): > 100 µM
- TGI (ACHN renal): > 100 µM
- TGI (RPMI-8226 leukemia): > 100 µM
- TGI (DU-145 prostate): > 100 µM
- TGI (MDA-MB-435): > 100 µM
- TGI (SK-MEL-5 melanoma): > 100 µM
- TGI (MOLT-4 leukemia): > 100 µM
- TGI (HL-60(TB) leukemia): > 100 µM
- TGI (OVCAR-4 ovarian): > 100 µM
- TGI (MDA-MB-231 breast): > 100 µM
- TGI (RXF 393 renal): > 100 µM
- TGI (HCT-116 colon): > 100 µM
- TGI (SK-OV-3 ovarian): > 100 µM
- TGI (SW-620 colon): > 100 µM
- TGI (TK-10 renal): > 100 µM
- TGI (786-0 renal): > 100 µM
- TGI (HT29 colon): > 100 µM
- TGI (NCI-H522 lung): > 100 µM
- TGI (A498 renal): > 100 µM
- TGI (SF-268 CNS): > 100 µM
- TGI (OVCAR-8 ovarian): > 100 µM
- TGI (A549 NSCLC): > 100 µM
- TGI (EKVX NSCLC): > 100 µM
- TGI (K-562 leukemia): > 100 µM
- TGI (HCT-15 colon): > 100 µM
- TGI (HCC-2998 colon): > 100 µM
- TGI (MDA-N): > 100 µM
- TGI (MCF7 breast): > 100 µM
- TGI (CCRF-CEM leukemia): > 100 µM
